Values quoted from earlier work as cited in US20130004575A1, “CONTROLLED RELEASE FORMULATIONS USING INTELLIGENT POLYMERS” (VALEANT INTERNATIONAL (BARBADOS) SRL, priority 1997, published 2013).

Settings: room temperature

- solubility of topiramate in water: about 9.8 mg/mL
SMILES: CC1(C)O[C@@H]2[C@@H](CO[C@@]3(COS(N)(=O)=O)OC(C)(C)O[C@@H]23)O1 [topiramate, 2,3:4,5-bis-O-(1-methylethylidene)-β-D-fructopyranose sulfamate]
